Data on one molecule can be found in article PMC7044277 (Nature Communications, 2020).

Assay type in all cases: cell-based
In assay [1] the target is T1, 320 non-olfactory GPCRs (Homo sapiens, UniProt P20309).
T1 construct: expressed in transfected cells; host or cells: HTLA cells

Assay [2] has as its target T2, 320 non-olfactory GPCRs (Homo sapiens, UniProt P35348).
T2 construct: expressed in transfected cells; host or cells: HTLA cells

Assay [3] addresses T3, 320 non-olfactory GPCRs (Homo sapiens, UniProt Q969V1).
T3 construct: expressed in transfected cells; host or cells: HTLA cells
To be noted: receptor MCHR2R; replicate values, Fig_4g.

Assay [4] concerns the target 320 non-olfactory GPCRs (Homo sapiens, UniProt P47211).

Each structure is given as a SMILES string. Values joined by “and” are separate entries in the source; they are usually repeats but may differ in a detail not shown here. Equal values may be shown once.
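For Fold of Basal in this document: compound tested at 1 µM final concentration.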
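For GPCRome agonism screen response in this document: fold over basal response of each receptor without drug.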

T2 sequence (P35348 whole entry): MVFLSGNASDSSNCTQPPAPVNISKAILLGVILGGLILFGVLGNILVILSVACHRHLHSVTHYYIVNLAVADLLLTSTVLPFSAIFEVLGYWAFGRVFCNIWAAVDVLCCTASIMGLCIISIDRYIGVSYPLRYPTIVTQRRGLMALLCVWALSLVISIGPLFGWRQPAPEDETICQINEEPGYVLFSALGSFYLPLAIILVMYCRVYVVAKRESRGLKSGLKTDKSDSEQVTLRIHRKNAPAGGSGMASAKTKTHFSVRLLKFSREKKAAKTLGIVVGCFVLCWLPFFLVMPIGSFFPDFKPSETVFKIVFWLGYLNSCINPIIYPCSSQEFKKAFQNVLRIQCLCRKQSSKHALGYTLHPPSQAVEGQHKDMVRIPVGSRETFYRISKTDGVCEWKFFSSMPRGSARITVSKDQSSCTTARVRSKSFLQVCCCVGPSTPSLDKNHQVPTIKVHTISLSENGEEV
Sequence of 320 non-olfactory GPCRs (Homo sapiens, UniProt P47211) (P47211 whole entry): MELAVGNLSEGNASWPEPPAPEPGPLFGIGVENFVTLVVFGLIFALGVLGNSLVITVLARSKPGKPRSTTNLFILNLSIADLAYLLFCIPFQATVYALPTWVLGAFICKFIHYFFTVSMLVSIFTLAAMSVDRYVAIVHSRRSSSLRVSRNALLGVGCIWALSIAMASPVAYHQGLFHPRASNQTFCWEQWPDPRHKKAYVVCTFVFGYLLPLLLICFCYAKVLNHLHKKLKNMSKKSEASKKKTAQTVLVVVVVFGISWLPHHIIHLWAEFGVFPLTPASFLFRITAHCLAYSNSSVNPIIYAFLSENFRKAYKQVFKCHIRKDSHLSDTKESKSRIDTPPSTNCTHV
T3 sequence (Q969V1 whole entry): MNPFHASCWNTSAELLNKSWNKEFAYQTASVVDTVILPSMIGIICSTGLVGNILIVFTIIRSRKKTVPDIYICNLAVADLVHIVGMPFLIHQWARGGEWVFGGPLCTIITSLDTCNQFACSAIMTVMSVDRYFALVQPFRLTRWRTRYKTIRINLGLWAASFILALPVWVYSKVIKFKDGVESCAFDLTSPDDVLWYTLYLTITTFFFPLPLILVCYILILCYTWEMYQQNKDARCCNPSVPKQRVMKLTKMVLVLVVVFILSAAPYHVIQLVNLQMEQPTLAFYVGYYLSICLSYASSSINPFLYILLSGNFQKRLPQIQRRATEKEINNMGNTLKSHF
T1 sequence (P20309 whole entry): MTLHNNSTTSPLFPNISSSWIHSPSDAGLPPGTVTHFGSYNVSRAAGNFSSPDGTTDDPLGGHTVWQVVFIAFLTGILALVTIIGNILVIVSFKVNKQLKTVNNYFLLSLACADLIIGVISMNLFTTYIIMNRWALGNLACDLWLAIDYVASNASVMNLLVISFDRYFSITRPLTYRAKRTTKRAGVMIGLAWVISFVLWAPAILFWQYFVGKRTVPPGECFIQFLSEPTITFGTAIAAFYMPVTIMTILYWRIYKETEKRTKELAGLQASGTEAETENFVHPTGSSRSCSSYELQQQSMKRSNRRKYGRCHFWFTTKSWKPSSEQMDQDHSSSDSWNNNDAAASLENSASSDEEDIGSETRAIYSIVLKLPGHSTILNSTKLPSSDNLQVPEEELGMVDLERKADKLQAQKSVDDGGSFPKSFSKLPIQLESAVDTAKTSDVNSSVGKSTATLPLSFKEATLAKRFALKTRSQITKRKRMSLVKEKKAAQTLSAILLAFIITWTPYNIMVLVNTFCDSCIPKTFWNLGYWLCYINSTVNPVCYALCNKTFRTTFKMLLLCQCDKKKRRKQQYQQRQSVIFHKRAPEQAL

As to `CCOc1cccc2cc(C(C)NCC3(O)CCCCC3)oc12` (stereo not shown) [O4LE6], the “Fold of Basal” value is 0.7288 and 1.095 and 0.9519 and 0.808 on 320 non-olfactory GPCRs [1]; 1.536 and 0.8942 and 1.241 and 1.268 on 320 non-olfactory GPCRs [2]; 0.9505 and 0.7559 and 1.028 and 0.7017 on 320 non-olfactory GPCRs [4]. Also, the “GPCRome agonism screen response” value at 320 non-olfactory GPCRs [3] is 1.156 and 0.4645 and 1.04 and 0.6466.
